Tested on: DS-PAMPA, 20% ACN buffer, UV absorbance, 30 min
Test: artificial-membrane permeation in acetonitrile buffer – biophysical, double-sink PAMPA, 20% ACN buffer, pH 5.0/6.2/7.4, ADME assay for GPR30 and estrogen receptor ligands, late-stage follow-up (AID 602463)
Details: stronger effect = higher value

For `CC(=O)c1ccc2c(c1)[C@@H]1C=CC[C@@H]1[C@H](c1cc3c(cc1Br)OCO3)N2`, the permeability pH 7.4 was 316 10^-6 cm/s, the permeability pH 5.0 (measured here: PAMPA permeability at pH 5.0) was 349 10^-6 cm/s and the permeability pH 6.2 (measured here: PAMPA permeability at pH 6.2) was 565 10^-6 cm/s.
